These results are taken from patent US20240308982A1, “DEGRADERS OF WILD-TYPE AND MUTANT FORMS OF LRRK2 AND USES THEREOF” (DANA-FARBER CANCER INSTITUTE, INC., priority 2021, published 2024).

As usually defined, the DC50 is the concentration at which degradation of the target reaches its halfway point. A high value points to degradation only at high concentration. For orientation: Dmax means the largest share of the target that was removed. High values mean a fuller loss of target, low ones a partial loss of target.

This assay has as its system LRRK2. The assay can be described thus: Degradation of LRRK2 (immunoblots of treated cells). The format is cell-based. The note with it: 448T cells, immunoblot, concentrations 0 to 1000 nM. As for the experimental part: Example 7: Degradation of LRRK2
Cell lines: Mouse embryonic fibroblast (MEF) WT, LRRK2 homozygous knock-ins in MEFs [R1441C; VPS35N(D620N); G2019S].
Tested concentrations of LRRK2 degraders: 0 nM; 10 nM; 30 nM; 100 nM; 300 nM; 1000 nM.
Experimental time points: 1 h; 6 h; 24 h and 48 h.
Complete growth medium: DMEM supplemented with 10% Fetal Bovine Serum; 1% pen/strep; 1% L-Glutamine; 1% MEM Non-essential Amino Acid Solution; 1% sodium pyruvate.
Treatment: WT MEF, and cells containing mutant LRRK2 (R1441C, VPS35N and G2019S) cells were plated at equal density into 6-well plates in a final volume of 3 mL of complete growth medium/well. Degraders were reconstituted in DMSO and used at 1:1000 in cells i.e., 3 μL/3 mL. Treatment began when cells were >60% confluent, starting from the longest, 48 h time point, followed by 24 h, 6 h and finally 1 h.
Cell lysis: Media were aspirated, plates were placed on ice and cells were washed with DPBS. Fifty (50) microliters of an ice-cold lysis buffer containing 50 mM Tris-HCl, pH 7.5, 1% (v/v) Triton X-100, 1 mM EGTA, 1 mM sodium orthovanadate, 50 mM NaF, 0.1% (v/v) 2-mercaptoethanol, 10 mM 2-glycerophosphate, 5 mM sodium pyrophosphate, 0.1 μg/mL microcystin-LR (Enzo Life Sciences), 270 mM sucrose and complete EDTA-free protease inhibitor cocktail (Sigma-Aldrich Cat #11836170001) were added per well. Lysates were centrifuged at 20 817 g (14,000 rpm) for 15 min at 4° C. and supernatants were used to determine protein concentration using Bradford assay (Pierce™ Coomassie (Bradford) Protein Assay Kit, Thermo Scientific Cat #23200) and for Western blot analysis.
Western blot analysis: Cell lysates were mixed with 4× SDS-PAGE sample buffer [50 mM Tris —HCl, pH 6.8, 2% (w/v) SDS, 10% (v/v) glycerol, 0.02% (w/v) Bromophenol Blue and 1% (v/v) 2-mercaptoethanol] to a final total protein concentration of 1 μg/μL and heated at 95° C. for 5 min. […]
In general terms: A western blot detects proteins with antibodies after separation by electrophoresis.

Consider `CC1(Oc2ccc3[nH]nc(-c4cc(N5CCN(CC6CN(c7ccc8c(c7)C(=O)N(C7CCC(=O)NC7=O)C8=O)C6)CC5)ncn4)c3c2)CC1` (stereo not drawn) [Compound 1, 2-(2,6-dioxopiperidin-3-yl)-5-(3-((4-(6-(5-(1-methylcyclopropoxy)-1H-indazol-3-yl)pyrimidin-4-yl)piperazin-1-yl)methyl)azetidin-1-yl)isoindoline-1,3-dione], for which the DC50 was 0.033 µM, the greatest degradation seen (Dmax) was 60% and the “degrader of LRRK2” value is on record as “potent degrader of LRRK2”.
